The results in this text go back to patent US10076519B2 (CYTOKINETICS, INC., priority 2010, dated 2018).

The test system of one experiment is rabbit skeletal myofibrils (fast skeletal myofibrils). As to the kind of experiment: Activation of fast skeletal myofibrils (PUMA assay, PK/LDH-coupled ATPase at pCa25). It counts as biochemical. Particulars: AC1.4 determined according to the procedure of Example 39; reported as class symbols. The method in brief:
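ATPase activity of Triton-washed rabbit skeletal myofibrils, roughly 90% fast fibres, tracked by NADH loss at 340 nm through a PK/LDH-coupled ADP-regenerating system. Calcium set to 25% of maximal activity (pCa25), in PIPES 12 mM pH 6.8 with 2 mM MgCl2 and 1 mM DTT; AC1.4 reported.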
`Cn1ncc2ccc(-c3ccc(NCC(C)(C)c4ccc(F)cc4)nn3)cc21` [[2-(4-fluorophenyl)-2-methylpropyl][6-(1-methyl(1H-indazol-6-yl))pyridazin-3-yl]amine]: the “Mean AC1.4” value was “B (B=1-10 uM)”.
For `CC(CNc1ccc(-c2cccc(C(N)=O)c2)nn1)c1ccccc1F` (centres unmarked), the “Mean AC1.4” value is reported as “B (B=1-10 uM)”.
Consider `CCOC(=O)c1cc(-c2ccc(NCC(C)(C)c3ccc(F)cc3)nn2)ccc1F` [ethyl 2-fluoro-5-(6-{[2-(4-fluorophenyl)-2-methylpropyl]amino}pyridazin-3-yl)benzoate], for which the “Mean AC1.4” value is on record as “B (B=1-10 uM)”.
For `CC(C)(C)OC(=O)N(CC(C)(C)c1ccc(F)cc1)c1ccc(-c2cc(C(N)=O)ccc2F)nn1`, the “Mean AC1.4” value was “D (D=>20 uM)”.
On the same count and under the same terms, in the case of `CCNc1n[nH]c2ccc(-c3ccc(NCC(C)(C)c4ccc(F)cc4)nn3)cc12` [{6-[3-(ethylamino)(1H-indazol-5-yl)]pyridazin-3-yl}[2-(4-fluorophenyl)-2-methylpropyl]amine] it was “A (A=<1 uM)”; in that of `CS(=O)(=O)Nc1ccc(-c2ccc(NCC3(c4ncccc4F)CCC3)nn2)cc1`, “B (B=1-10 uM)”.
Still for that read-out and setting: the same measure for `CC(C)(CNc1ccc(-c2ccc(Cl)cc2)nn1)c1ccc(F)cc1` [[6-(4-chlorophenyl)pyridazin-3-yl][2-(4-fluorophenyl)-2-methylpropyl]amine]: “B (B=1-10 uM)”; for `COC(=O)c1ccc(NCC(C)(C)c2ccc(F)cc2)nn1` [Methyl 6-(2-(4-fluorophenyl)-2-methylpropylamino)pyridazine-3-carboxylate]: “C (C=10-20 uM)”.

Staying with this experiment, now noted: median AC1.4 class, procedure of Example 39.
For `NC(=O)c1ccc(-c2ccc(NC3(c4ccc(F)cc4)CCC3)nn2)s1` [5-(6-{[(4-fluorophenyl)cyclobutyl]ami-no}pyridazin-3-yl)thiophene-2-carboxamide], the “Mean AC1.4” value is reported as “B (B=1-10 uM)”.
On to `O=C(NCc1cnc(-c2ccc(NCC3(c4ncccc4F)CCC3)nn2)s1)[C@H]1CCCN1` [((2R)pyrrolidin-2-yl)-N-({2-[6-({[(3-fluoro(2-pyridyl))cyclobutyl]methyl}ami-no)pyridazin-3-yl](1,3-thiazol-5-yl)}methyl)carboxamide], for which the “Mean AC1.4” value is “A (A=<1 uM)”.
The same measure, in the same setting: the same measure for `NCC(=O)NCc1cnc(-c2ccc(NCC3(c4ncccc4F)CCC3)nn2)s1` [2-amino-N-({2-[6-({[(3-fluoro(2-pyridyl))cyclobutyl]methyl}ami-no)pyridazin-3-yl](1,3-thiazol-5-yl)}methyl)acetamide]: “A (A=<1 uM)”; for `Oc1ccc2nc(-c3ccc(NCC4(c5ncccc5F)CCC4)nn3)sc2n1` [2-[6-({[(3-fluoro-2-pyridyl)cyclobutyl]methyl}ami-no)pyridazin-3-yl]-1,3-thiazolino[5,4-b]pyridin-5-ol]: “B (B=1-10 uM)”; for `Fc1cccnc1C1(CNc2ccc(-c3ncc(-c4nn[nH]n4)s3)nn2)CCC1` [[6-(5-(2H-1,2,3,4-tetraazol-5-yl)(1,3-thiazol-2-yl))pyridazin-3-yl]{[(3-fluoro(2-pyridyl))cyclobutyl]methyl}amine]: “B (B=1-10 uM)”.
On to `CN(C)c1n[nH]c2ccc(-c3ccc(NCC(C)(C)c4ccc(F)cc4)nn3)cc12` [[5-(6-{[2-(4-fluorophenyl)-2-methylpropyl]amino}pyridazin-3-yl)(1H-indazol-3-yl)]dimethylamine], for which the “Mean AC1.4” value is given as “B (B=1-10 uM)”.
Still for that read-out and setting: in the case of `COc1cc(-c2ccc(NCC3(c4ncccc4F)CCC3)nn2)ccc1C(=O)O` it was “D (D=>20 uM)”; in that of `CC(C)(O)c1ccc(NCC2(c3ncccc3F)CCC2)nn1`, “D (D=>20 uM)”.

Staying with this experiment, now noted: median AC1.4 reported as class; procedure of Example 39.
`N#Cc1nc[nH]c1NC(=O)c1ccc(NCC2(c3ncccc3F)CCC2)nn1` [N-(4-cyanoimidazol-5-yl)[6-({[(3-fluoro(2-pyridyl))cyclobutyl]methyl}ami-no)pyridazin-3-yl]carboxamide]: the “Mean AC1.4” value is recorded as “C (C=10-20 uM)”.
